Assay results taken from patent US12005078B2, “Genetically engineered drug resistant T cells and methods of using the same” (The UAB Research Foundation, priority 2015, dated 2024).

Experiments:
X12T glioma = assay: Survival of TMZ-resistant glioma-bearing mice; assay type: in vivo; details: cells given as single administration per week
Description: (§1) The expression of NKG2DL on tumor cells increases the overall potency of γδ T cell therapy. FIGS. 5A and 5B show the survival of X12P and X12T (TMZ resistant) glioma-bearing mice, respectively, in response to various treatments. […] The DRI treatment regimen increased median survival from 57 to 75 days over the TMZ treatment regimen. […] The DRI treatment regimen increased median survival from 22 to 27 days over the TMZ treatment regimen. The effect of the DRI treatment regimen could be increased by intensification of the administration of the γδ T cells and NK cells from a single administration per week (as shown in FIG. 2) to two administrations per week (data not shown).

X12P glioma = assay: Survival of glioma-bearing mice; assay type: in vivo
Description: as §1

How did the median survival (X12T glioma) turn out when `Cn1nnc2c(C(N)=O)ncn2c1=O` [TMZ, temozolomide] was run?
The median survival was 22 days.

What about the median survival (X12P glioma) of the same compound?
Its median survival is 57 days.
